ChEMBL document CHEMBL1124229, “Spiro hydantoin aldose reductase inhibitors” (J Med Chem, 1988)

Assays:
[1] = molecular target: T1, Aldo-keto reductase family 1 member B1 (Bos taurus, UniProt P16116); experiment: In vitro inhibition of partially purified calf lens aldose reductase
Rattus norvegicus [2] = species: Rattus norvegicus; experiment: Ability to cause 50% reduction in sorbitol levels of sciatic nerve of streptozotocinized rats was determined; format: functional
[3] = molecular target: T1, Aldo-keto reductase family 1 member B1; experiment: Inhibition of partially purified calf lens aldose reductase; value ranges from 10E-4 to 10e-5 M
[4] = pKa in DMF/H2O was measured; format: physicochemical
Rattus norvegicus [5] = species: Rattus norvegicus; experiment: 50% reduction in sorbitol accumulation in isolated sciatic nerves incubated in the presence of high glucose concentration; format: functional; details: Sciatic nerve
Rattus norvegicus [6] = species: Rattus norvegicus; experiment: Dose causing 50% reduction in sorbitol accumulation in sciatic nerves of streptozotocinized rats, (tid)
[7] = molecular target: T1, Aldo-keto reductase family 1 member B1; experiment: In vitro inhibition of partially purified calf lens aldose reductase; value ranges from 10E-5 to 10E-6
[8] = molecular target: T1, Aldo-keto reductase family 1 member B1; experiment: In vitro inhibitory activity towards partially purified calf lens aldose reductase; value ranges from 10E-6 - 10E-7
[9] = Rattus norvegicus, Sciatic nerve, read-out: ED50

Row | SMILES | IC50 [1] [µM] | ED50 (Rattus norvegicus [2]; [9]) [mg/kg] | further results
1 | O=C1NC(=O)C2(CCOc3cc(C(F)(F)F)ccc32)N1 (stereo not given) | 1 | 5 | 
2 | O=C1N=C(O)O[C@@]12CCOc1ccc(Cl)cc12 |  |  | IC50 [3]: 100 µM
3 | NC(=O)NC(=O)C1CCc2ccccc21 (stereo not given) | 100 | > 10 | 
4 | Cc1cc(C)c2c(c1C)OCCC21NC(=O)NC1=O (stereo not given) | 1 |  | 
5 | NC(=O)c1ccc2c(c1)C1(CCO2)NC(=O)NC1=O (stereo not given) |  | > 100 | IC50 [3]: 100 µM
6 | O=C1NC(=O)C2(CCc3ccccc32)O1 (stereo not given) |  | > 25 | 
7 | CC1CCC2(NC(=O)NC2=O)c2ccccc21 (stereo not given) | 100 | > 25 | 
8 | O=C1NC(=O)C2(CCCc3[nH]ccc32)N1 (stereo not given) | > 100 | > 25 | 
9 | O=C1NC(=O)C2(CCn3c(=O)ccc4cc(Cl)cc2c43)N1 (stereo not given) | < 0.1 | > 1.5 | 
10 | O=C1NC(=O)C2(CCCC3CCCCC32)N1 (stereo not given) | > 100 | < 25 | 
11 | O=C(O)C1CCOc2c1cc(Cl)c1ccccc21 (stereo not given) | 1 | > 25 | 
12 | O=C1NC(=O)C2(CCOc3ccccc32)N1 (stereo not given) | 10 | 5 | 
13 | O=C1NC(=O)C2(CCCc3sccc32)N1 (stereo not given) | 100 | 25 | 
14 | O=C1NC(=O)C2(CCOc3ccc(Cl)cc32)O1 (stereo not given) |  | > 1.5 | 
15 | COc1ccc2c(c1)C1(CCS2)NC(=O)NC1=O (stereo not given) | 10 | > 5 | 
16 | O=C1CC2(CCOc3ccc(Cl)cc32)C(=O)N1 (stereo not given) | < 100 | > 5 | 
17 | COc1cccc2c3c(ccc12)C1(CCO3)NC(=O)NC1=O (stereo not given) | 0.1 | > 1.5 | 
18 | O=C1NC(=O)C2(CCOc3ccc(Oc4ccccc4)cc32)N1 (stereo not given) |  | 25 | 
19 | O=C1NC(=O)C2(CCCc3occc32)N1 (stereo not given) |  | 25 | 
20 | O=C1NC(=O)C2(CCc3ccc(F)cc32)N1 (stereo not given) |  | 5 | IC50 [3]: 100 µM
21 | O=C1NC(=O)C2(CCCc3ncccc32)N1 (stereo not given) | 10 | 10 | 
22 | Cc1ccc(C)c2c1OCCC21NC(=O)NC1=O (stereo not given) | 1 | > 1.5 | 
23 | O=C1NC(=O)C2(Cc3ccccc3C2)N1 | > 100 | > 25 | 
24 | O=C1NC(=O)C2(CCS(=O)(=O)c3c(Cl)cc(Cl)cc32)N1 (stereo not given) | 0.1 | > 1.5 | 
25 | CC(C)(C)c1ccc2c(c1)C1(CCS2)NC(=O)NC1=O (stereo not given) |  |  | IC50 [3]: 100 µM
26 | O=C1CC2(CCc3ccccc32)C(=O)N1 (stereo not given) | > 100 | > 2.5 | 
27 | O=C1NCC2(CCOc3ccc(Cl)cc32)N1 (stereo not given) | 10 | > 10 | 

Row | SMILES | IC50 [1] [µM] | ED50 (Rattus norvegicus [2]; [9]) [mg/kg] | further results
28 | O=C1NC(=O)[C@@]2(CCOc3ccc(F)cc32)N1 (stereo in doubt; 115) [SORBINIL] |  |  | pKa [4]: 8.7; IC50 (Rattus norvegicus [5]): 1 µM; ED50 (Rattus norvegicus [2]): 0.25 mg/kg; ED50 (Rattus norvegicus [6]): 1e-05 M/kg
29 | CC1CCc2ccccc2C12NC(=O)NC2=O (stereo not given) | 100 | > 25 | 
30 | c1ccc2c(c1)CCC21CCNC1 (stereo not given) | > 100 | > 25 | 
31 | CC(C)(C)c1ccc2c(c1)C1(CCO2)NC(=O)NC1=O (stereo not given) |  |  | IC50 [3]: 100 µM
32 | O=C1NC(=O)C2(CCOc3c2ccc2cccnc32)N1 (stereo not given) | 10 | > 1.5 | 
33 | O=C1NC(=O)C2(CCOc3ccc(-c4ccccc4)cc32)N1 (stereo not given) | < 100 | > 1.5 | 
34 | O=C1NC(=O)C2(CCS(=O)(=O)c3ccccc32)N1 (stereo not given) |  | 20 | IC50 [7]: 10 µM
35 | O=C1NC(=O)C2(CCOc3c(Cl)cccc32)N1 (stereo not given) | 1 | > 1.5 | 
36 | O=C1NC(=O)C2(CCSc3ccc(F)cc32)N1 (stereo not given) |  | 1.5 | IC50 [8]: 1 µM
37 | O=C1NC(=O)[C@]2(CCOc3ccc(F)cc32)N1 |  | 25 | 
38 | CN1CCC2(NC(=O)NC2=O)c2ccccc21 (stereo not given) |  | > 25 | IC50 [3]: 100 µM
39 | O=C1NC(=O)C2(CCSc3ccc(Br)cc32)N1 (stereo not given) |  | 2.5 | IC50 [8]: 1 µM
40 | O=C(O)C1CCOc2c(Cl)cc(Cl)cc21 (stereo not given) | 10 |  | 
41 | O=C1NC(=O)C2(CCOc3cc(Cl)c(Cl)cc32)N1 (stereo not given) | < 0.1 | < 1.5 | 
42 | O=C1NC(=O)C2(CCOc3ccc(Cl)cc32)C(=O)N1 |  | > 10 | IC50 [3]: 100 µM
43 | O=C1NC(=O)C2(CCSc3ccc(Cl)cc32)N1 (stereo not given) |  | 2.5 | IC50 [8]: 1 µM
44 | COc1ccc2c(c1)C1(CC2)NC(=O)NC1=O (stereo not given) | 10 | 10 | 
45 | Cc1cc(C)c2c(c1)C1(CCO2)NC(=O)NC1=O (stereo not given) | 1 | > 1.5 | 
46 | COc1ccc(Cl)c2c1CCCC21NC(=O)NC1=O (stereo not given) | > 100 | > 25 | 
47 | O=C1NC(=O)C2(CCOc3c2ccc2ccccc32)N1 (stereo not given) | < 100 | > 1.5 | 
48 | O=C(O)CC1(CC(=O)O)CCCC1 |  | ~500 | IC50 [7]: 10 µM; IC50 [8]: 1 µM
49 | O=C1NC(=O)C2(CCCC2c2ccccc2)N1 (stereo not given) | > 100 | > 25 | 
50 | O=C1CC2(CCCc3ccccc32)C(=O)N1 (stereo not given) | > 100 | 5 | 
51 | O=C1NC(=O)C2(CCSc3cc(Cl)ccc32)N1 (stereo not given) | 1 | > 1.5 | 
52 | COc1cc2c(cc1OC)C1(CC2)NC(=O)NC1=O (stereo not given) |  | 10 | IC50 [7]: 10 µM
53 | COc1cc2c(cc1OC)C1(CCC2)NC(=O)NC1=O (stereo not given) |  | > 5 | IC50 [3]: 100 µM
54 | O=C1NC(=O)C2(CCOc3c(F)cccc32)N1 (stereo not given) | < 100 |  | 
